Patent publication US9833497B2, “Human originated EGF domain proteins and use of the same” (CHENGDU SOURCEBIO LIMITED-LIABILITY COMPANY, priority 2013, dated 2017)

Experiments:
Assay type in all cases: cell-based
E. coli DH5α = assay: Antibacterial activity: MIC and growth curve against E. coli DH5α in 96-well plate; details: minimal inhibitory concentration against E. coli DH5α; 96-well plate, 5×10^5 CFU/mL, 37° C., judged after 8 h
Outline: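 MIC taken as lowest protein level with no bacterial growth, tracked by A600 every 30 min during 37 °C, 175 rpm culture. Two-fold protein series 50-12.5 μg/mL final, triplicate wells, against 5×10^5 CFU/mL of LB-washed mid-log cells.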

E. coli BL21 = assay: MIC against Gram-negative bacteria: E. coli BL21; details: for MIC (μg/mL) E. coli BL21 / MIC: E. coli BL21
Outline: (§1)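 First, colonies from LB agar were grown in LB at 37° C, 185 rpm, to McFarland turbidity 0.5, then centrifuged and resuspended in fresh LB. Next, wells received 5×10^5 CFU/mL bacteria plus two-fold serially diluted EGF domain protein (triplicate). Finally, plates were shaken at 37° C and the no-growth concentration taken as MIC.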

Pseudomonas aeruginosa = assay: MIC against Gram-negative bacteria: Pseudomonas aeruginosa
Outline: as §1

Klebsiella pneumonia = assay: MIC against Gram-negative bacteria: Klebsiella pneumonia
Outline: as §1

Enterobacter cloacae = assay: MIC against Gram-negative bacteria: Enterobacter cloacae
Outline: as §1

Aeromonas hydrophila = assay: MIC against Gram-negative bacteria: Aeromonas hydrophila
Outline: as §1

Citrobacter diversus = assay: MIC against Gram-negative bacteria: Citrobacter diversus
Outline: as §1

Moraxella catarrhalis = assay: MIC against Gram-negative bacteria: Moraxella catarrhalis
Outline: as §1

Proteus mirabilis = assay: MIC against Gram-negative bacteria: Proteus mirabilis
Outline: as §1

Proteus vulgaris = assay: MIC against Gram-negative bacteria: Proteus vulgaris
Outline: as §1

Serratia marcescens = assay: MIC against Gram-negative bacteria: Serratia marcescens
Outline: as §1

[1] = 96-well plate, 5×10^5 CFU/mL, 37° C., 10 h
[2] = Pseudomonas aeruginosa, 96-well plate, 5×10^5 CFU/mL, 37° C., 10 h
[3] = Klebsiella pneumonia, 96-well plate, 5×10^5 CFU/mL, 37° C., 10 h
[4] = Enterobacter cloacae, 96-well plate, 5×10^5 CFU/mL, 37° C., 10 h
[5] = Aeromonas hydrophila, 96-well plate, 5×10^5 CFU/mL, 37° C., 10 h
[6] = Citrobacter diversus, 96-well plate, 5×10^5 CFU/mL, 37° C., 10 h
[7] = Moraxella catarrhalis, 96-well plate, 5×10^5 CFU/mL, 37° C., 10 h
[8] = Proteus mirabilis, 96-well plate, 5×10^5 CFU/mL, 37° C., 10 h
[9] = Proteus vulgaris, 96-well plate, 5×10^5 CFU/mL, 37° C., 10 h
[10] = Serratia marcescens, 96-well plate, 5×10^5 CFU/mL, 37° C., 10 h
[11] = 10 h cultivation at 37° C., 5×10^5 CFU/mL
[12] = P. aeruginosa, 10 h cultivation at 37° C., 5×10^5 CFU/mL
[13] = K. pneumonia, 10 h cultivation at 37° C., 5×10^5 CFU/mL
[14] = E. cloacae, 10 h cultivation at 37° C., 5×10^5 CFU/mL
[15] = A. hydrophila, 10 h cultivation at 37° C., 5×10^5 CFU/mL
[16] = C. diversus, 10 h cultivation at 37° C., 5×10^5 CFU/mL
[17] = M. catarrhalis, 10 h cultivation at 37° C., 5×10^5 CFU/mL
[18] = P. mirabilis, 10 h cultivation at 37° C., 5×10^5 CFU/mL
[19] = P. vulgaris, 10 h cultivation at 37° C., 5×10^5 CFU/mL
[20] = S. marcescens, 10 h cultivation at 37° C., 5×10^5 CFU/mL

Substance: PRT36 (PVRDCSKDNGGCSKNFRCISDRKLDSTGCVCPSGLSPMKDSSGCY; listed as Homo sapiens)
- MIC (E. coli DH5α): 12.5 µg/mL
- MIC (μg/mL) E. coli BL21 (E. coli BL21; [1]): 25 µg/mL
- MIC (μg/mL) P. aeruginosa (Pseudomonas aeruginosa; [2]): 12.5 µg/mL
- MIC (μg/mL) K. pneumonia (Klebsiella pneumonia; [3]): 12.5 µg/mL
- MIC (μg/mL) E. cloacae (Enterobacter cloacae; [4]): 25 µg/mL
- MIC (μg/mL) A. hydrophila (Aeromonas hydrophila; [5]): 25 µg/mL
- MIC (μg/mL) C. diversus (Citrobacter diversus; [6]): 50 µg/mL
- MIC (μg/mL) M. catarrhalis (Moraxella catarrhalis; [7]): 25 µg/mL
- MIC (μg/mL) P. mirabilis (Proteus mirabilis; [8]): 25 µg/mL
- MIC (μg/mL) P. vulgaris (Proteus vulgaris; [9]): 12.5 µg/mL
- MIC (μg/mL) S. marcescens (Serratia marcescens; [10]): 25 µg/mL

Substance: PRT645 (EINECTVNPDICGAGHCINLPVRYTCICYEGYRFSEQQ; listed as Homo sapiens)
- MIC (E. coli DH5α): 50 µg/mL
- MIC E. coli BL21 (E. coli BL21; [1]): 25 µg/mL
- MIC P. aeruginosa (Pseudomonas aeruginosa; [1]): 12.5 µg/mL
- MIC K. pneumonia (Klebsiella pneumonia; [1]): 25 µg/mL
- MIC E. cloacae (Enterobacter cloacae; [1]): 50 µg/mL
- MIC A. hydrophila (Aeromonas hydrophila; [1]): 25 µg/mL
- MIC C. diversus (Citrobacter diversus; [1]): 12.5 µg/mL
- MIC M. catarrhalis (Moraxella catarrhalis; [1]): 50 µg/mL
- MIC P. mirabilis (Proteus mirabilis; [1]): 12.5 µg/mL
- MIC P. vulgaris (Proteus vulgaris; [1]): 50 µg/mL
- MIC S. marcescens (Serratia marcescens; [1]): 12.5 µg/mL

Substance: PRT399 (DVDECRMLAHLCAHGECINSLGSFRCHCQAGYTPDATATTCL; listed as Homo sapiens)
- MIC (E. coli DH5α): 12.5 µg/mL
- MIC (E. coli BL21; [11]): 50 µg/mL
- MIC (Pseudomonas aeruginosa; [12]): 12.5 µg/mL
- MIC (Klebsiella pneumonia; [13]): 50 µg/mL
- MIC (Enterobacter cloacae; [14]): 12.5 µg/mL
- MIC (Aeromonas hydrophila; [15]): 50 µg/mL
- MIC (Citrobacter diversus; [16]): 12.5 µg/mL
- MIC (Moraxella catarrhalis; [17]): 50 µg/mL
- MIC (Proteus mirabilis; [18]): 12.5 µg/mL
- MIC (Proteus vulgaris; [19]): 50 µg/mL
- MIC (Serratia marcescens; [20]): 12.5 µg/mL

Substance: PRT909 (LVDECSPSPCQNGATCTDYLGGYSCKCVAGYHGVNCS; listed as Homo sapiens)
- MIC (E. coli DH5α): 50 µg/mL
- MIC (E. coli BL21; 10 h cultivation at 37° C.): 25 µg/mL
- MIC (Pseudomonas aeruginosa; P. aeruginosa, 10 h cultivation at 37° C.): 12.5 µg/mL
- MIC (Klebsiella pneumonia; K. pneumonia, 10 h cultivation at 37° C.): 50 µg/mL
- MIC (Enterobacter cloacae; E. cloacae, 10 h cultivation at 37° C.): 25 µg/mL
- MIC (Aeromonas hydrophila; A. hydrophila, 10 h cultivation at 37° C.): 12.5 µg/mL
- MIC (Citrobacter diversus; C. diversus, 10 h cultivation at 37° C.): 50 µg/mL
- MIC (Moraxella catarrhalis; M. catarrhalis, 10 h cultivation at 37° C.): 25 µg/mL
- MIC (Proteus mirabilis; P. mirabilis, 10 h cultivation at 37° C.): 12.5 µg/mL
- MIC (Proteus vulgaris; P. vulgaris, 10 h cultivation at 37° C.): 50 µg/mL
- MIC (Serratia marcescens; S. marcescens, 10 h cultivation at 37° C.): 12.5 µg/mL

Substance: PRT22 (WCEDNGGCEQICTSRVDGPLCSCVTGTLQEDGKSCR; listed as Homo sapiens)
- MIC (E. coli DH5α): 50 µg/mL
- MIC (μg/mL) E. coli BL21 (E. coli BL21; [1]): 50 µg/mL
- MIC (μg/mL) P. aeruginosa (Pseudomonas aeruginosa; [2]): 25 µg/mL
- MIC (μg/mL) K. pneumonia (Klebsiella pneumonia; [3]): 12.5 µg/mL
- MIC (μg/mL) E. cloacae (Enterobacter cloacae; [4]): 12.5 µg/mL
- MIC (μg/mL) A. hydrophila (Aeromonas hydrophila; [5]): 25 µg/mL
- MIC (μg/mL) C. diversus (Citrobacter diversus; [6]): 12.5 µg/mL
- MIC (μg/mL) M. catarrhalis (Moraxella catarrhalis; [7]): 25 µg/mL
- MIC (μg/mL) P. mirabilis (Proteus mirabilis; [8]): 12.5 µg/mL
- MIC (μg/mL) P. vulgaris (Proteus vulgaris; [9]): 12.5 µg/mL
- MIC (μg/mL) S. marcescens (Serratia marcescens; [10]): 25 µg/mL

Substance: PRT188 (HVSDCARNPCAHGGTCHDLENGLMCTCPAGFSGRRCE; listed as Homo sapiens)
- MIC (E. coli DH5α): 12.5 µg/mL
- MIC (μg/mL) E. coli BL21 (E. coli BL21; [11]): 12.5 µg/mL
- MIC (μg/mL) P. aeruginosa (Pseudomonas aeruginosa; [12]): 50 µg/mL
- MIC (μg/mL) K. pneumonia (Klebsiella pneumonia; [13]): 12.5 µg/mL
- MIC (μg/mL) E. cloacae (Enterobacter cloacae; [14]): 50 µg/mL
- MIC (μg/mL) A. hydrophila (Aeromonas hydrophila; [15]): 12.5 µg/mL
- MIC (μg/mL) C. diversus (Citrobacter diversus; [16]): 12.5 µg/mL
- MIC (μg/mL) M. catarrhalis (Moraxella catarrhalis; [17]): 25 µg/mL
- MIC (μg/mL) P. mirabilis (Proteus mirabilis; [18]): 12.5 µg/mL
- MIC (μg/mL) P. vulgaris (Proteus vulgaris; [19]): 25 µg/mL
- MIC (μg/mL) S. marcescens (Serratia marcescens; [20]): 12.5 µg/mL

Substance: PRT513 (CECDPYGSLPVPCDPVTGFCTCRPGATGRKCDGCKHWHAREGWECVF; listed as Homo sapiens)
- MIC (E. coli DH5α): 50 µg/mL
- MIC against E. coli BL21 (E. coli BL21; [1]): 12.5 µg/mL
- MIC against P. aeruginosa (Pseudomonas aeruginosa; [1]): 50 µg/mL
- MIC against K. pneumonia (Klebsiella pneumonia; [1]): 12.5 µg/mL
- MIC against E. cloacae (Enterobacter cloacae; [1]): 25 µg/mL
- MIC against A. hydrophila (Aeromonas hydrophila; [1]): 50 µg/mL
- MIC against C. diversus (Citrobacter diversus; [1]): 25 µg/mL
- MIC against M. catarrhalis (Moraxella catarrhalis; [1]): 12.5 µg/mL
- MIC against P. mirabilis (Proteus mirabilis; [1]): 50 µg/mL
- MIC against P. vulgaris (Proteus vulgaris; [1]): 12.5 µg/mL
- MIC against S. marcescens (Serratia marcescens; [1]): 12.5 µg/mL
